Measurements published in ChEMBL document CHEMBL2406913, “First synthesis and biological evaluation of 4-amino-2-aryl-6,9-dichlorobenzo[g]pteridines as inhibitors of TNF-α and IL-6” (Eur J Med Chem, 2013).

Assays:
HL-60 [1] = assay: Cytotoxicity against human HL-60 derived macrophage-like cells at 50 uM after 1 hr by MTT assay; assay type: cell-based; conditions: hl-60, 1 h
HL-60 [2] = assay: Antiinflammatory activity in human HL-60 derived macrophage-like cells assessed as inhibition of LPS-induced IL-6 production treated 30 mins before LPS stimulation measured after 24 hrs by ELISA; assay type: functional, cell-based
HL-60 [3] = assay: Antiinflammatory activity in human HL-60 derived macrophage-like cells assessed as inhibition of LPS-induced IL-6 production at 50 uM treated 30 mins before LPS stimulation measured after 24 hrs by ELISA; assay type: functional
HL-60 [4] = assay: Antiinflammatory activity in human HL-60 derived macrophage-like cells assessed as inhibition of LPS-induced TNFalpha production treated 30 mins before LPS stimulation measured after 24 hrs by ELISA; assay type: functional, cell-based
HL-60 [5] = assay: Antiinflammatory activity in human HL-60 derived macrophage-like cells assessed as inhibition of LPS-induced TNFalpha production at 50 uM treated 30 mins before LPS stimulation measured after 24 hrs by ELISA; assay type: functional

| SMILES | Activity (HL-60 [1]) [%] | IC50 (HL-60 [2]) [µM] | inhibition at 50 µM (HL-60 [3]) [%] | IC50 (HL-60 [4]) [µM] | inhibition at 50 µM (HL-60 [5]) [%] |
| --- | --- | --- | --- | --- | --- |
| Cc1ccc(-c2nc(N)c3nc4c(Cl)ccc(Cl)c4nc3n2)cc1 | 3.9 | 25.2 | 95.4 | 7.4 | 87.4 |
| Nc1nc(-c2cc(C(F)(F)F)cc(C(F)(F)F)c2)nc2nc3c(Cl)ccc(Cl)c3nc12 | 0 | 22.9 | 100 | 7.3 | 99.7 |
| Nc1nc(-c2ccccc2)nc2nc3c(Cl)ccc(Cl)c3nc12 | 13 | 34.4 | 73.8 | 35.9 | 75.2 |
| Nc1ccc(-c2nc(N)c3nc4c(Cl)ccc(Cl)c4nc3n2)cc1 | 15.7 | 25.7 | 85.1 | 36.2 | 63.2 |
| Nc1nc(-c2cccc([N+](=O)[O-])c2)nc2nc3c(Cl)ccc(Cl)c3nc12 | 1.5 | – | 41.3 | – | 0 |
| Cc1cccc(-c2nc(N)c3nc4c(Cl)ccc(Cl)c4nc3n2)c1 | 0.2 | 25.7 | 95.1 | 6 | 100 |
| C[S+]([O-])c1ccc(-c2nc(-c3ccncc3)c(-c3ccc(F)cc3)[nH]2)cc1 (stereo unspecified) [SB-203580] | 0 | – | 8.4 | 8.6 | 68.1 |
| Nc1nc(-c2ccc(Cl)cc2)nc2nc3c(Cl)ccc(Cl)c3nc12 | 2.5 | 46.9 | 54.3 | – | 6.7 |
| Cc1ccc(-c2nc(N)c3nc4c(Cl)ccc(Cl)c4nc3n2)cc1F | 1.8 | 26.5 | 93 | 5.8 | 80 |
| Nc1nc(-c2ccc(C(F)(F)F)cc2)nc2nc3c(Cl)ccc(Cl)c3nc12 | 0 | 35.4 | 83 | 8.7 | 67.2 |
